The target in one assay is TYK2 (Homo sapiens, UniProt P29597). In words: TYK2 kinase inhibition assay (33P-ATP filter binding, Reaction Biology).
A further assay concerns the target JAK3 (Homo sapiens, UniProt P52333). In words: JAK3 kinase inhibition assay (33P-ATP filter binding, Reaction Biology).
Another assay has as its target JAK1 (Homo sapiens, UniProt P23458). In words: JAK1 kinase inhibition assay (33P-ATP filter binding, Reaction Biology).
In a further assay the test system is pSTAT3 in HT29 cells. In words: pSTAT3 inhibition in response to IL-22 stimulation in serum starved HT29 cells. The assay is classed as cell-based. As to the method: HT29 cells were serum starved overnight before the four test compounds were diluted to generate a 9-point semi-log dose dilution with a top concentration of 10 μM, plus vehicle control. HT29 cells were incubated with the test compounds for 20 min at 37° C. HT29 cells were incubated for a further 15 min with 10 ng/ml human IL-22 before cells were fixed with 4% PFA for 10 min, and 90% methanol for 30 min before being labelled with a phospho-STAT3Y705 antibody (CST #9145). Cells were rinsed three times using 0.5% BSA/PBS solution before being incubated with Alexa-488 anti-rabbit secondary antibodies.
Mean fluorescence intensity of phospho-STAT3 in single cells was analysed by flow cytometry using an Intellicyt iQue instrument and FlowJo software. The IC50 was determined using a four-parameter analysis following removal of background signal and normalisation to the DMSO control.

JAK1, sequence (P23458 866-1154): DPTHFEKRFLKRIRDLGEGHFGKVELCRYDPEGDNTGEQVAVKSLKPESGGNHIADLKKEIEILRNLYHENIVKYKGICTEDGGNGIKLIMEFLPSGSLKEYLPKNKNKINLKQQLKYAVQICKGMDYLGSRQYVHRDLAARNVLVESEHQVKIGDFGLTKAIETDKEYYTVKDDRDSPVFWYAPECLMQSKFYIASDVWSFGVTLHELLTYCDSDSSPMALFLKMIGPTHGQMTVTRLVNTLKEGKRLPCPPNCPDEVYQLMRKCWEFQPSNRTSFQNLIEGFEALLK
JAK3, sequence (P52333 781-1124): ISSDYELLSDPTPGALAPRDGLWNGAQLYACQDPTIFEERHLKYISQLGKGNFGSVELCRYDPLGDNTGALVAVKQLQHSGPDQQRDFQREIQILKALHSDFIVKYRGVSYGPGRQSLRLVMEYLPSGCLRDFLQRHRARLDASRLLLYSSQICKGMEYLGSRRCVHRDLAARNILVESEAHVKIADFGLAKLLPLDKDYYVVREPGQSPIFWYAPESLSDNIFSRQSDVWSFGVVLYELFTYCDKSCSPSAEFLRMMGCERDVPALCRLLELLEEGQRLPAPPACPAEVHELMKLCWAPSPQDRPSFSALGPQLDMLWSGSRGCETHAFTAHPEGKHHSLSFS
TYK2, sequence (P29597 833-1187): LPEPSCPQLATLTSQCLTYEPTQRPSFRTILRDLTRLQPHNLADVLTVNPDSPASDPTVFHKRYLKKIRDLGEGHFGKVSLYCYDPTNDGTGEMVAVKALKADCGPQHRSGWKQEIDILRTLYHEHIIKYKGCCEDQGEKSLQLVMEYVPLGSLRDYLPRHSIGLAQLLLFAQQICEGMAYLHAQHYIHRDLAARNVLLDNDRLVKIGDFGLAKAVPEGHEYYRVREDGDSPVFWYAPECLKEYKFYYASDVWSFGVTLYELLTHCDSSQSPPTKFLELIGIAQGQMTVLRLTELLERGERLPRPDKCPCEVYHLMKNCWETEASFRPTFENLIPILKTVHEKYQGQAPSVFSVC

A word on the IC50: it is the midpoint of a concentration-inhibition curve. The low end stands for inhibition by little substance, the high end for a need for much substance. As a reminder, the inhibition is the percentage by which the read-out fell short of the control. Higher therefore signals a strong effect. In the case of `NC(=O)c1nc(-c2c(F)cccc2Cl)oc1Nc1ccc(C(=O)N2CCOCC2)cc1` [A, 2-(2-chloro-6-fluoro-phenyl)-5-[4-(morpholine-4-carbonyl)-phenylamino]-oxazole-4-carboxylic acid amide, reference compound], the IC50 on TYK2 was 0.01 µM; at JAK3, 0.29 µM; at JAK1, 0.049 µM; with pSTAT3 in HT29 cells (Homo sapiens, HT-29, HT29 cells, 10 ng/ml human IL-22) it was 0.17 µM. In the assay on pSTAT3 in HT29 cells (HT-29, HT29 cells, 10 ng/ml human IL-22, 10 μM compound), this compound had an inhibition at 10 µM of 96.9%.

These data come from patent US12187716B2, “TYK2 kinase inhibitors” (SAREUM LIMITED, priority 2018, dated 2025).
